# Measurements as given in ChEMBL document CHEMBL4808187, “Antiarrhythmic Hit to Lead Refinement in a Dish Using Patient-Derived iPSC Cardiomyocytes” (J Med Chem, 2021).
# Calls of active or inactive are those of the source. No cut-off for these calls is given here.
# Tests used:
# [1] = Antiarrhythmic activity in patient-derived hiPSC-CMs carrying LQT3 mutation assessed as shortening dose of action potential; format: functional, Homo sapiens, iPSC-CM
# [2] = Antiarrhythmic activity in hiPSC-CMs assessed as cessation dose of cell beating; details: human, ipsc-cm
# [3] = Antiarrhythmic activity in hiPSC-CMs assessed as prolongation of action potential; design: species or system Homo sapiens, iPSC-CM
# [4] = Antiarrhythmic activity in patient-derived hiPSC-CMs carrying LQT3 mutation assessed as fold shortening of action potential duration relative to control; format: functional, Homo sapiens, iPSC-CM; note: test concentration or dose not given here
# iPSC-CM = test: (§1) Antiarrhythmic activity in patient-derived hiPSC-CMs carrying LQT3 mutation assessed as cessation dose for cell beating; format: functional; details: Homo sapiens
# [5] = Antiarrhythmic activity in patient-derived hiPSC-CMs carrying LQT3 mutation assessed as shortening of action potential duration; format: functional, Homo sapiens; details: ipsc-cm
# [6] = Antiarrhythmic activity in hiPSC-CMs assessed as dose for induction of early after depolarizations; details: human, ipsc-cm
# [7] = as §1; format: functional, Homo sapiens, iPSC-CM
# [8] = Inhibition of potassium channel (unknown origin) expressed in CHO cells assessed as reduction in potassium current by automated patch clamp method; format: cell-based
# Homo sapiens = species on record: Homo sapiens; test: Selectivity index, ratio of IC50 for potassium channel (unknown origin) expressed in CHO cells assessed as reduction in potassium current to IC50 for sodium channel (unknown origin) expressed in HEK cells assessed as reduction in late inward sodium current
# [9] = Inhibition of sodium channel (unknown origin) expressed in HEK cells assessed as reduction in late inward sodium current by automated patch clamp method; format: cell-based; details: Homo sapiens, HEK293
# [10] = Inhibition of sodium channel (unknown origin) expressed in HEK cells assessed as reduction in peak sodium current by automated patch clamp method; format: cell-based; details: Homo sapiens, HEK293
# [11] = Antiarrhythmic activity in hiPSC-CMs assessed as fold prolongation of action potential relative to control; details: human, ipsc-cm
# [12] = Homo sapiens, iPSC-CM, read-out: EC50
IC50 [8],IC50 [9],IC50 [10],SMILES,Activity [1],Activity [2],"EC50 [3, 12]",fold change (FC) [4],Activity (iPSC-CM),EC50 ([5]; read-out: EC50),Activity [6],EC50 ([3]; ipsc-cm),EC50 [5],Activity [7],Ratio IC50 (Homo sapiens),Activity [11],fold change (FC) [11]
–,–,–,Cc1ccccc1OCC(C)N.Cl (centres undefined),22 µM,Not Active,83.9 µM,1.284,inactive,< 0.8 µM,200 µM,–,–,–,–,–,–
–,–,–,CC(N)COc1ccccc1C(F)(F)F.Cl (centres undefined),133 µM,Not Active,–,1.375,inactive,–,Not Active,Not Active,Not Active,–,–,–,–
–,–,–,Cc1ccc(OCC(N)c2ccccc2)cc1C.Cl (centres undefined),22 µM,66 µM,–,1.37,–,–,Not Active,Not Active,Not Active,66 µM,–,–,–
27.6 µM,11.4 µM,91.4 µM,Cc1cccc(C)c1OCC(N)C(C)(C)C.Cl (centres undefined),2.5 µM,Not Active,–,1.182,–,< 0.8 µM,7.4 µM,Not Active,–,22 µM,2.42,–,–
–,–,–,Cc1cc(C)cc(OCC(NCCO)c2ccccc2)c1.Cl (centres undefined),22 µM,66 µM,–,1.5,–,–,Not Active,–,Not Active,22 µM,–,Not Active,–
–,–,–,Cl.NC(COc1ccccc1OCC(F)(F)F)c1ccccc1 (centres undefined),22 µM,66 µM,–,1.409,–,0.9 µM,Not Active,Not Active,–,66 µM,–,–,–
–,–,–,Cl.NC(COc1ccccc1OC(F)(F)F)c1ccccc1 (centres undefined),22 µM,66 µM,–,1.513,–,2.6 µM,Not Active,Not Active,–,66 µM,–,–,–
–,–,–,COCCNC(C)COc1c(C)cccc1C.Cl (centres undefined),7.4 µM,Not Active,32 µM,–,inactive,2.3 µM,66 µM,–,–,–,–,–,–
–,–,–,CC(N)COc1cc(C(F)(F)F)cc(C(F)(F)F)c1.Cl (centres undefined),7.4 µM,133 µM,–,1.2,–,0.9 µM,Not Active,Not Active,–,66 µM,–,–,–
–,–,–,Cl.NC(COc1cccc2ccccc12)c1ccccc1 (centres undefined),66 µM,Not Active,–,1.316,–,0.82 µM,Not Active,Not Active,–,66 µM,–,–,–
–,–,–,CCc1ccccc1OCC(C)N.Cl (centres undefined),22 µM,Not Active,23.5 µM,1.118,inactive,6 µM,Not Active,–,–,–,–,–,–
–,–,–,CC(=O)NC(COc1c(C)cccc1C)c1ccccc1 (centres undefined),22 µM,Not Active,–,1.62,–,0.8 µM,Not Active,–,–,66 µM,–,Not Active,–
–,–,–,Cc1ccc(OCC(N)C2CC2)c(C)c1.Cl (centres undefined),66 µM,200 µM,–,1.119,–,1.36 µM,66 µM,–,–,200 µM,–,–,2.12
–,–,–,Cc1cccc(C)c1OCC(C)NCc1ccccc1.Cl (centres undefined),22 µM,200 µM,5.7 µM,1.264,–,–,Not Active,–,Not Active,133 µM,–,–,–
–,–,–,COCCNC(COc1cc(C(F)(F)F)cc(C(F)(F)F)c1)c1ccccc1.Cl (centres undefined),66 µM,Not Active,–,1.636,–,6.59 µM,Not Active,–,–,66 µM,–,Not Active,–
–,–,–,Cc1cccc(C)c1OCC(N)C1CCCCC1.Cl (centres undefined),0.8 µM,66 µM,–,1.136,–,< 0.8 µM,Not Active,Not Active,–,66 µM,–,–,–
–,–,–,CCCc1ccccc1OCC(N)c1ccccc1.Cl (centres undefined),2.5 µM,22 µM,–,1.321,–,< 0.8 µM,Not Active,Not Active,–,22 µM,–,–,–
–,–,–,Cc1cccc(C)c1OCC(NC(=O)c1ccccc1)c1ccccc1 (centres undefined),66 µM,Not Active,–,1.64,inactive,0.8 µM,Not Active,–,–,–,–,Not Active,–

IC50 [8],IC50 [9],IC50 [10],SMILES,Activity [1],Activity [2],"EC50 [3, 12]",fold change (FC) [4],Activity (iPSC-CM),EC50 ([5]; read-out: EC50),Activity [6],EC50 ([3]; ipsc-cm),EC50 [5],Activity [7],Ratio IC50 (Homo sapiens),Activity [11],fold change (FC) [11]
–,–,–,Cl.NC(COc1cccc(C(F)(F)F)c1)c1ccccc1 (centres undefined),22 µM,66 µM,–,1.539,–,4.1 µM,Not Active,Not Active,–,66 µM,–,–,–
–,–,–,CCCCNC(C)COc1c(C)cccc1C.Cl (centres undefined),2.5 µM,133 µM,7.8 µM,1.18,–,< 0.8 µM,66 µM,–,–,66 µM,–,–,–
–,–,–,CCc1ccccc1OCC(N)c1ccccc1.Cl (centres undefined),7.4 µM,66 µM,–,1.979,–,< 0.8 µM,Not Active,Not Active,–,22 µM,–,–,–
–,–,–,CCCCNC(COc1cccc(C)c1C)c1ccccc1.Cl (centres undefined),133 µM,133 µM,–,1.423,–,20.2 µM,Not Active,–,–,200 µM,–,Not Active,–
–,–,–,Cl.NC(COc1ccc2ccccc2c1)c1ccccc1 (centres undefined),2.5 µM,Not Active,–,1.459,–,8.7 µM,Not Active,Not Active,–,133 µM,–,–,–
44.1 µM,36 µM,124 µM,CNC(C)COc1c(C)cccc1C.Cl (centres undefined),–,66 µM,7.8 µM,–,–,1.5 µM,22 µM,–,–,133 µM,1.2,–,–
–,–,–,Cc1cccc(C)c1OCC(N)c1ccccc1.Cl (centres undefined),–,–,–,–,–,–,–,–,–,–,–,–,4
–,–,–,Cc1cccc(OCC(C)N)c1.Cl (centres undefined),200 µM,Not Active,27.3 µM,1.418,inactive,–,66 µM,–,Not Active,–,–,–,–
–,–,–,CCCNC(C)COc1c(C)cccc1C.Cl (centres undefined),2.5 µM,200 µM,10.4 µM,1.199,–,–,66 µM,–,Not Active,200 µM,–,–,–
–,–,–,CC(N)COc1cccc(C(F)(F)F)c1.Cl (centres undefined),133 µM,200 µM,–,1.661,–,31.3 µM,Not Active,Not Active,–,200 µM,–,–,–
–,–,–,Cc1cccc(OCC(N)c2ccccc2)c1.Cl (centres undefined),22 µM,133 µM,–,1.41,–,< 0.8 µM,Not Active,Not Active,–,66 µM,–,–,–
–,–,–,Cc1cccc(C)c1OCC(N)c1ccc2ccccc2c1.Cl (centres undefined),22 µM,Not Active,–,1.309,–,4.73 µM,Not Active,Not Active,–,133 µM,–,–,–
–,–,–,COc1ccccc1OCC(N)c1ccccc1.Cl (centres undefined),0.8 µM,22 µM,32.2 µM,1.482,–,< 0.8 µM,7.4 µM,–,–,133 µM,–,–,–
–,–,–,Cc1ccc(OCC(N)C2CC2)cc1C.Cl (centres undefined),22 µM,66 µM,–,1.18,–,–,Not Active,–,Not Active,66 µM,–,Not Active,–
–,–,–,CNC(COc1cccc(C)c1C)c1ccccc1.Cl (centres undefined),22 µM,133 µM,–,1.29,–,–,Not Active,–,Not Active,66 µM,–,Not Active,–
–,–,–,CCCc1ccccc1OCC(C)N.Cl (centres undefined),7.4 µM,200 µM,7.8 µM,1.192,–,0.9 µM,Not Active,–,–,133 µM,–,–,–
–,–,–,Cc1ccc(OCC(N)c2ccccc2)c(C)c1.Cl (centres undefined),7.4 µM,66 µM,–,1.192,–,0.5 µM,Not Active,Not Active,–,66 µM,–,–,–
